Values quoted from earlier work as cited in PubChem BioAssay AID1259409 (Chemical Carcinogenesis Research Information System (CCRIS), 2018).
Several values for one entry are separate records, joined by “and”; a condition that tells them apart may be missing. Equal entries are not always repeated.

System: rodent chemically induced tumor inhibition, incidence and multiplicity
Experiment: CCRIS tumor inhibitor studies

Structure (SMILES): S=C=NCc1ccccc1
- tumour outcome (control, treated, inhibition, significance) (Carcinogen: 1,2-DIMETHYLHYDRAZINE, 540-73-8, Dose [Inhibitor]: 1.25 MG/G IN DIET FOR 17 WK (STUDY DURATION: 36 WK), Route [Inhibitor]: ORAL, Species: MOUSE, Strain/Sex: CF1/FEMALE, Target Tissue: Type of Lesion: LARGE INTESTINE: TUMOR, Dose [Carcinogen]: 0.7 MG IN 0.2 ML EDTA SOLUTION ADMINISTERED 8 D AFTER INHIBITOR DIET STARTED AND CONTINUED 1/WK FOR 16 WK, Promoter: NONE USED): 9/9 (100%), 14/14 (100%), 0%, not significant
- tumour outcome (control, treated, inhibition, significance) (Carcinogen: 2-AMINO-1-METHYL-6-PHENYLIMIDAZO[4,5-B]PYRIDINE, 105650-23-5, Dose [Inhibitor]: 0, 400 PPM IN HIGH FAT DIET FOR DURATION OF STUDY BEGINNING 1 WK PRIOR TO CARCINOGEN TREATMENT (STUDY DURATION: 31 WK), Route [Inhibitor]: ORAL, Species: RAT, Strain/Sex: SPRAGUE-DAWLEY/FEMALE, Target Tissue: Type of Lesion: MAMMARY GLAND: ADENOCARCINOMA, Dose [Carcinogen]: 100 MG/KG BW 1/2 D FOR 16 D, Promoter: NONE USED): 23/31 (74%), 20/32 (63%), 15%, not significant
- tumour outcome (control, treated, inhibition, significance) (Carcinogen: 4-(METHYLNITROSAMINO)-1-(3-PYRIDYL)-1-BUTANONE [64091-91-4], BENZO[A]PYRENE [50-32-8], Dose [Inhibitor]: 1 UMOL/G IN DIET FOR 10 WK BEGINNING 1 WK PRIOR TO FIRST CARCINOGEN DOSE (STUDY DURATION: 28 WK), Route [Inhibitor]: ORAL, Species: MOUSE, Strain/Sex: A/J/FEMALE, Target Tissue: Type of Lesion: LUNG: TUMOR, Dose [Carcinogen]: 3 UMOL BAP + 3 UMOL NNK IN 0.1 ML COTTONSEED OIL 1X/WK FOR 8 WK (STUDY DURATION: 28 WK), Promoter: NONE): 100%, 100%, 0%, not calculated
- tumour outcome (control, treated, inhibition, significance) (Carcinogen: 4-(METHYLNITROSAMINO)-1-(3-PYRIDYL)-1-BUTANONE [64091-91-4], BENZO[A]PYRENE [50-32-8], Dose [Inhibitor]: 6 UMOL IN 0.1 ML COTTONSEED OIL 1/WK FOR 8 WK 2 HR PRIOR TO EACH CARCINOGEN DOSE (STUDY DURATION: 16 WK), Route [Inhibitor]: GAVAGE, Species: MOUSE, Strain/Sex: A/J/FEMALE, Target Tissue: Type of Lesion: LUNG: TUMOR, Dose [Carcinogen]: 3 UMOL BAP + 3 UMOL NNK IN 0.1 ML COTTONSEED OIL 1X/WK FOR 8 WK (STUDY DURATION: 16 WK), Promoter: NONE): 100%, 100%, 0%, not calculated
- tumour outcome (control, treated, inhibition, significance) (Carcinogen: 4-(METHYLNITROSAMINO)-1-(3-PYRIDYL)-1-BUTANONE, 64091-91-4, Dose [Inhibitor]: 0, 1 UMOL/G DIET FOR 15 WK BEGINNING 1 WK POST CARCINOGEN DOSE (STUDY DURATION: 16 WK), Route [Inhibitor]: ORAL, Species: MOUSE, Strain/Sex: STRAIN-A/FEMALE, Target Tissue: Type of Lesion: LUNG: ADENOMA, Dose [Carcinogen]: 10 UMOL ONCE, Promoter: NONE USED): 100%, 100%, 0%, not significant
- tumour outcome (control, treated, inhibition, significance) (Carcinogen: 4-(METHYLNITROSAMINO)-1-(3-PYRIDYL)-1-BUTANONE, 64091-91-4, Dose [Inhibitor]: 0, 3 UMOL/G DIET FOR 15 WK BEGINNING 1 WK POST CARCINOGEN DOSE (STUDY DURATION: 16 WK), Route [Inhibitor]: ORAL, Species: MOUSE, Strain/Sex: STRAIN-A/FEMALE, Target Tissue: Type of Lesion: LUNG: ADENOMA, Dose [Carcinogen]: 10 UMOL ONCE, Promoter: NONE USED): 100%, 100%, 0%, not significant
- tumour outcome (control, treated, inhibition, significance) (Carcinogen: 4-(METHYLNITROSAMINO)-1-(3-PYRIDYL)-1-BUTANONE, 64091-91-4, Dose [Inhibitor]: 0, 5 UMOL 1/D FOR 4 D ADMINISTERED PRIOR TO CARCINOGEN DOSE (STUDY DURATION: 116 D), Route [Inhibitor]: GAVAGE, Species: MOUSE, Strain/Sex: STRAIN-A, Target Tissue: Type of Lesion: LUNG: ADENOMA, Dose [Carcinogen]: 10 UMOL IN SALINE ADMINISTERED 2 HR POST LAST AGENT DOSE, Promoter: NONE USED): 100%, 100%, 0%
- tumour outcome (control, treated, inhibition, significance) (Carcinogen: 4-(METHYLNITROSAMINO)-1-(3-PYRIDYL)-1-BUTANONE, 64091-91-4, Dose [Inhibitor]: 0, 5 UMOL/D FOR 4 CONSECUTIVE DAYS (STUDY DURATION: 17 WK), Route [Inhibitor]: GAVAGE, Species: MOUSE, Strain/Sex: STRAIN-A/FEMALE, Target Tissue: Type of Lesion: LUNG: ADENOMA, Dose [Carcinogen]: 10 UMOL ONCE 2 HR POST LAST AGENT DOSE, Promoter: NONE USED): 100%, 100%, 0%, not significant
- tumour outcome (control, treated, inhibition, significance) (Carcinogen: 4-(METHYLNITROSAMINO)-1-(3-PYRIDYL)-1-BUTANONE, 64091-91-4, Dose [Inhibitor]: 5 UMOL/D FOR 4 CONSECUTIVE DAYS (STUDY DURATION: 16 WK), Route [Inhibitor]: GAVAGE, Species: MOUSE, Strain/Sex: STRAIN-A/FEMALE, Target Tissue: Type of Lesion: LUNG: ADENOMA, Dose [Carcinogen]: 10 UMOL ONCE 2 HR POST LAST AGENT DOSE, Promoter: NONE USED): 30/30 (100%), 30/30 (100%), 0%
- tumour outcome (control, treated, inhibition, significance) (Carcinogen: 4-(N-NITROSOMETHYLAMINO)-1-(3-PYRIDYL)-1-BUTANONE, 64091-91-4, Dose [Inhibitor]: 0, 5 UMOL/D FOR 4 CONSECUTIVE DAYS (STUDY DURATION: 16.5 WK), Route [Inhibitor]: GAVAGE, Species: MOUSE, Strain/Sex: STRAIN-A/FEMALE, Target Tissue: Type of Lesion: LUNG: ADENOMA, Dose [Carcinogen]: 10 UMOL ONCE 2 HR POST LAST AGENT DOSE, Promoter: NONE USED): 100%, 100%, 0%, not significant
- tumour outcome (control, treated, inhibition, significance) (Carcinogen: 4-METHYLNITROSAMINO)-1-(3-PYRIDYL)-1-BUTANONE, 64091-91-4, Dose [Inhibitor]: 0, 5 UMOL 1/D FOR 4 D ADMINISTERED PRIOR TO CARCINOGEN TREATMENT (STUDY DURATION: 116 D), Route [Inhibitor]: GAVAGE, Species: MOUSE, Strain/Sex: STRAIN A, Target Tissue: Type of Lesion: LUNG: ADENOMA, Dose [Carcinogen]: 10 UMOL ONCE 2 HR AFTER FINAL DOSE OF INHIBITOR, Promoter: NONE USED): 100%, 100%, 0%, not significant
- tumour outcome (control, treated, inhibition, significance) (Carcinogen: 7,12-DIMETHYLBENZ[A]ANTHRACENE, 57-97-6, Dose [Inhibitor]: 0.017 MMOL/G IN DIET BEGINNING 1 WK AFTER CARCINOGEN ADMINISTRATION (STUDY DURATION: 28 WK), Route [Inhibitor]: ORAL, Species: RAT, Strain/Sex: SPRAGUE-DAWLEY/FEMALE, Target Tissue: Type of Lesion: MAMMARY GLAND: TUMOR, Dose [Carcinogen]: 12 MG DMBA IN 1.0 ML OLIVE OIL ONCE, Promoter: NONE USED): 100%, 63%, 37%, p<0.001
- tumour outcome (control, treated, inhibition, significance) (Carcinogen: 7,12-DIMETHYLBENZ[A]ANTHRACENE, 57-97-6, Dose [Inhibitor]: 5.0 MG/G DIET AT AGE 9 WK SIMULTANEOUSLY WITH CARCINOGEN, 3/WK FOR 4 WK (STUDY DURATION: 20 WK), Route [Inhibitor]: ORAL, Species: MOUSE, Strain/Sex: ICR/FEMALE, Target Tissue: Type of Lesion: LUNG: ADENOMA, Dose [Carcinogen]: 0.05 MG/G DIET AT AGE 9 WK, 3/WK FOR 4 WK, Promoter: NONE USED): 95%, 93%, 2%, not significant
- tumour outcome (control, treated, inhibition, significance) (Carcinogen: 7,12-DIMETHYLBENZ[A]ANTHRACENE, 57-97-6, Dose [Inhibitor]: 5 MG/G DIET AT AGE 9 WK SIMULTANEOUSLY WITH CARCINOGEN, 3/WK FOR 6 WK (STUDY DURATION: 20 WK), Route [Inhibitor]: ORAL, Species: MOUSE, Strain/Sex: ICR/FEMALE, Target Tissue: Type of Lesion: FORESTOMACH: TUMOR, Dose [Carcinogen]: 0.05 MG/G DIET AT AGE 9 WK, 3/WK FOR 4 WK, Promoter: NONE USED): 87%, 5%, 94%, p<0.01
- tumour outcome (control, treated, inhibition, significance) (Carcinogen: 7,12-DIMETHYLBENZ[A]ANTHRACENE, 57-97-6, Dose [Inhibitor]: 25 MG ONCE 2 HR BEFORE DMBA TREATMENT (STUDY DURATION: 18 WK), Route [Inhibitor]: INTRAGASTRIC, Species: RAT, Strain/Sex: SPRAGUE-DAWLEY/FEMALE, Target Tissue: Type of Lesion: MAMMARY GLAND: TUMOR, Dose [Carcinogen]: 12 MG IN 1 ML OLIVE OIL AT AGE 7 WK 2 HR AFTER AGENT TREATMENT, Promoter: NONE USED): 77%, 54%, 30%, not significant
- tumour outcome (control, treated, inhibition, significance) (Carcinogen: 7,12-DIMETHYLBENZ[A]ANTHRACENE, 57-97-6, Dose [Inhibitor]: 25 MG ONCE 4 HR BEFORE DMBA TREATMENT (STUDY DURATION: 18 WK), Route [Inhibitor]: INTRAGASTRIC, Species: RAT, Strain/Sex: SPRAGUE-DAWLEY/FEMALE, Target Tissue: Type of Lesion: MAMMARY GLAND: TUMOR, Dose [Carcinogen]: 12 MG IN 1 ML OLIVE OIL AT AGE 7 WK 4 HR AFTER AGENT TREATMENT, Promoter: NONE USED): 86%, 50%, 42%, p<0.05
- tumour outcome (control, treated, inhibition, significance) (Carcinogen: 7,12-DIMETHYLBENZ[A]ANTHRACENE, 57-97-6, Dose [Inhibitor]: 50 MG ONCE 2 HR BEFORE DMBA TREATMENT (STUDY DURATION: 18 WK), Route [Inhibitor]: INTRAGASTRIC, Species: RAT, Strain/Sex: SPRAGUE-DAWLEY/FEMALE, Target Tissue: Type of Lesion: MAMMARY GLAND: TUMOR, Dose [Carcinogen]: 12 MG IN 1 ML OLIVE OIL AT AGE 7 WK 2 HR AFTER AGENT TREATMENT, Promoter: NONE USED): 77%, 8%, 90%, p<0.001
- tumour outcome (control, treated, inhibition, significance) (Carcinogen: 7,12-DIMETHYLBENZ[A]ANTHRACENE, 57-97-6, Dose [Inhibitor]: 50 MG ONCE 4 HR AFTER DMBA TREATMENT (STUDY DURATION: 18 WK), Route [Inhibitor]: INTRAGASTRIC, Species: RAT, Strain/Sex: SPRAGUE-DAWLEY/FEMALE, Target Tissue: Type of Lesion: MAMMARY GLAND: TUMOR, Dose [Carcinogen]: 12 MG IN 1 ML OLIVE OIL AT AGE 7 WK 4 HR BEFORE AGENT TREATMENT, Promoter: NONE USED): 71%, 62%, 13%, not significant
- tumour outcome (control, treated, inhibition, significance) (Carcinogen: 7,12-DIMETHYLBENZ[A]ANTHRACENE, 57-97-6, Dose [Inhibitor]: 50 MG ONCE 4 HR BEFORE DMBA TREATMENT (STUDY DURATION: 18 WK), Route [Inhibitor]: INTRAGASTRIC, Species: RAT, Strain/Sex: SPRAGUE-DAWLEY/FEMALE, Target Tissue: Type of Lesion: MAMMARY GLAND: TUMOR, Dose [Carcinogen]: 12 MG IN 1 ML OLIVE OIL AT AGE 7 WK 4 HR AFTER AGENT TREATMENT, Promoter: NONE USED): 100%, 21%, 79%, p<0.001 and 85%, 23%, 73%, p<0.01
